Values after ≈ are worked out from the molar mass of the structure shown. Where two headings read alike, the source gives them in different places. Each block holds one compound with its values, some of them ahead of it.
How the values were obtained:
[1] = test system: promyelolytic leukemia HL-60; test: Cytostatic activity, panel: promyelolytic leukemia HL-60; type: cell-based; conditions: 72 h continuous exposure
Excerpt: (§1) Tables 8A and 8B present cytostatic activity in vitro of selected anthrapyridazone derivatives according to the invention against panel of sensitive and resistant cell lines, in comparison with doxorubicin, cisplatine and mitoxantrone.

colon cancer LoVo = test: Cytostatic activity, panel: colon cancer LoVo; type: cell-based; conditions: 72 h continuous exposure
Excerpt: as §1

HL60/MX2 = test: Cytostatic activity, panel: HL60/MX2 resistant to mitoxantrone; type: cell-based; conditions: for RI HL60 HL60/MX2: IC50(resistant cells)/IC50(sensitive cells)
Excerpt: as §1

[2] = test system: human prostate cancer cell line DU145; test: Cytostatic activity in vitro, prostate cancer DU145; type: cell-based; conditions: 72 h continuous exposure
Excerpt: (§2) Table 5 presents activity in vitro of anthrapiridazone derivatives towards three cell lines of prostate cancer, naturally multidrug resistant, in comparison with references doxorubicin, mitoxantrone and taxol.

MES-SA/DX5 = test: Cytostatic activity, panel: MES-SA/DX5 resistant to doxorubicin; type: cell-based; conditions: for RI MES-SA MES-SA/DX5: IC50(resistant cells)/IC50(sensitive cells)
Excerpt: as §1

[3] = test system: human colon adenocarcinoma HT29; test: Cytostatic activity in vitro, colon adenocarcinoma HT29; type: cell-based; conditions: 72 h continuous exposure
Excerpt: (§3) Table 7 presents activity in vitro of selected anthrapyridazone derivatives according to the invention towards sensitive and resistant (MDR-1 type) cell line of human colon adenocarcinoma with resistance induced by mitoxantrone.

HL60/VINC [4] = test: Substrate properties: activity against HL60/VINC in the presence of cyclosporine A (MDR-1 pump inhibitor); type: cell-based, human; conditions: FIG. 2
Excerpt: FIG. 2 shoes experimentally determined substrate properties of selected antgraoyridazone derivatives vs. Doxorubicin and Mitroxantrone. Activity in vitro against human promyelacytic leykemia cell line HL60/VINC in the presence of cyclosporine A (MDR-1 pump inhibitor).

[5] = test system: human promyelocytic leukemia cell line HL-60; test: Cytostatic activity in vitro, HL-60 sensitive line; type: cell-based; conditions: 50% inhibition of cell growth after 72 h continuous exposure, read-out: HL60 IC50
Excerpt: (§4) Tables 3 and 4 show cytostatic activity in vitro of 2,6-disubstituted and 2- or 6-monosubstituted (Tab.3), and of 2,5-disubstituted-(Tab.-4) tetracyclic anthrapyridazone derivatives using leukemia cell line HL-60 and the resistant cell sublines with resistance induced by vincristine (MDR-1) or doxorubicin (MRP). Activity of compounds is differentiated depending on their structure, but in all cases resistance indexes are more advantageous in comparison with reference compounds: doxorubicin and mitoxantrone.

uterus cancer MES-SA = test: Cytostatic activity, panel: uterus cancer MES-SA; type: cell-based; conditions: 72 h continuous exposure
Excerpt: as §1

[6] = test system: human breast cancer cell line MCF7; test: Cytostatic activity in vitro, breast cancer MCF7; type: cell-based; conditions: 72 h continuous exposure
Excerpt: (§5) It should be mentioned that resistance index is above one order of magnitude better in comparison with doxorubicin and mitoxantrone.

[7] = test system: human prostate cancer cell line LNCaP; test: Cytostatic activity in vitro, prostate cancer LNCaP; type: cell-based; conditions: 72 h continuous exposure
Excerpt: as §2

HT29/MIT = test: Cytostatic activity in vitro, mitoxantrone-induced resistant subline HT29/MIT; type: cell-based, human; conditions: for IC50: 72 h continuous exposure; for RI resistance index HT29/MIT: IC50(resistant cells)/IC50(sensitive cells), HT29/MIT vs HT29
Excerpt: as §3

CT-DNA = test: Interaction with isolated CT-DNA, fluorescence competition with ethidium bromide; type: binding; conditions: for IC50: 50% decrease in fluorescence intensity of DNA-bromide ethydine complex; for Kapp relative constant of DNA-compound bonding: Kapp = (1.26/C50) × KEtBr, KEtBr = 10^7M
Excerpt: It could be supposed that this property explains cytostatic activity of compounds. In Table 9 there are presented quantitative data on the affinity to DNA of tested compounds using the fluorescence method and competitive affinity to DNA of bromine ethydine and tested compounds.

HL60/VINC [8] = test: Cytostatic activity in vitro, vincristine-induced resistant subline (MDR-1); type: cell-based, human; conditions: for IC50: 72 h continuous exposure; for RI resistance index HL60/VINC: IC50(resistant cells)/IC50(sensitive cells), HL60/VINC vs HL60, 72 h
Excerpt: as §4

[9] = test system: lymphoblastic leukemia CCRF-CEM; test: Cytostatic activity, panel: lymphoblastic leukemia CCRF-CEM; type: cell-based; conditions: 72 h continuous exposure
Excerpt: as §1

HL60/DX [10] = test: Cytostatic activity in vitro, doxorubicin-induced resistant subline (MRP); type: cell-based, human; conditions: for IC50: 72 h continuous exposure; for RI resistance index HL60/DX: IC50(resistant cells)/IC50(sensitive cells), HL60/DX vs HL60, 72 h
Excerpt: as §4

HL60/DX [11] = test: Substrate properties: activity against HL60/DX in the presence of BSO (MRP pump inhibitor); type: cell-based, human; conditions: FIG. 3
Excerpt: Activity in vitro against human promyelolytic leukemia HL60/DX in the presence of D-L-buthionine-(S,R)-sulphoximine (BSO), MRP pump inhibitor.

[12] = test system: human prostate cancer cell line PC3; test: Cytostatic activity in vitro, prostate cancer PC3; type: cell-based; conditions: 72 h continuous exposure
Excerpt: as §2

LoVo/DX = test: Cytostatic activity, panel: LoVo/DX resistant to doxorubicin; type: cell-based; conditions: for RI LoVo LoVo/DX: IC50(resistant cells)/IC50(sensitive cells)
Excerpt: as §1

CEM/C2 = test: Cytostatic activity, panel: CEM/C2 resistant to camptotecine; type: cell-based; conditions: for RI CCRF-CEM CEM/C2: IC50(resistant cells)/IC50(sensitive cells)
Excerpt: as §1

MCF7/DX = test: Cytostatic activity in vitro, resistant breast cancer subline MCF7/DX (MDR-1); type: cell-based, human; conditions: for IC50: 72 h continuous exposure; for RI resistance index MCF7/DX: IC50(resistant cells)/IC50(sensitive cells), MCF7/DX vs MCF7
Excerpt: as §5

IC50 HL60 [1]: 0.00111 ± 0.00002 mg/L (≈ 0.00284 µM) | IC50 LoVo (colon cancer LoVo): 0.00153 ± 0.00102 mg/L (≈ 0.00391 µM) | IC50 [2]: 0.003 ± 0.0007 µM | IC50 MES-SA/DX5 (MES-SA/DX5; 72 h continuous exposure): 0.03833 ± 0.01136 mg/L (≈ 0.0979 µM) | IC50 [3]: 0.0052 ± 0.0013 µM | IC50 [5]: 0.0009 ± 0.0001 µM | IC50 MES-SA (uterus cancer MES-SA): 0.01333 ± 0.00238 mg/L (≈ 0.0341 µM) | IC50 [6]: 0.0088 ± 0.0006 µM | IC50 [7]: 0.0026 ± 0.0003 µM | IC50 (CT-DNA): 0.29 ± 0.01 µM | IC50 (HL60/VINC [8]): 0.0081 ± 0.001 µM | IC50 CCRF-CEM [9]: 0.00373 ± 0.00193 mg/L (≈ 0.00953 µM) | IC50 (HL60/DX [10]): 0.375 ± 0.041 µM | IC50 [12]: 0.014 ± 0.0033 µM | IC50 LoVo/DX (LoVo/DX; 72 h continuous exposure): 0.06842 ± 0.01273 mg/L (≈ 0.175 µM) | IC50 CEM/C2 (CEM/C2; 72 h continuous exposure): 0.00124 ± 0.00137 mg/L (≈ 0.00317 µM) | IC50 (MCF7/DX): 0.0087 ± 0.0012 µM
SMILES: CNCCNc1ccc2c(=O)n(CCN(C)C)nc3c2c1C(=O)c1ccccc1-3 [BS-154, 2-[2-(Dimethyloamino)ethyl]-6-{[2-(methylamino)ethyl]amino}-2,7-dihydro-3H -dibenzo[de,h]cynnoline-3,7-dione]
IC50 HL60/MX2 (HL60/MX2; 72 h continuous exposure): 0.00545 ± 0.00304 mg/L (≈ 0.0139 µM) | RI HL60 HL60/MX2 (HL60/MX2): 4.9 | RI MES-SA MES-SA/DX5 (MES-SA/DX5): 2.9 | Effect of blocking MDR-1 pump with cyclosporine A (CSA) on cytostatic activity (HL60/VINC [4]): does not essentially affect the cytostatic activity | IC50 (HT29/MIT): 0.0112 ± 0.0022 µM | RI resistance index HT29/MIT (HT29/MIT): 2.1 | Kapp relative constant of DNA-compound bonding (CT-DNA): 4.28e+07 M⁻¹ | RI resistance index HL60/VINC (HL60/VINC [8]): 9.0 | RI resistance index HL60/DX (HL60/DX [10]): 416.7 | Effect of MRP protein inhibitor (BSO) on cytostatic activity (HL60/DX [11]): only partially | RI LoVo LoVo/DX (LoVo/DX): 44.7 | RI CCRF-CEM CEM/C2 (CEM/C2): 0.3 | RI resistance index MCF7/DX (MCF7/DX): 1.0

SMILES: O=C1c2c(O)ccc(O)c2C(=O)c2c(NCCNCCO)ccc(NCCNCCO)c21 [Mitoxantrone, 1,4-dihydroxy-5,8-bis[2-(2-hydroxyethylamino)ethylamino]-9,10-anthracenodione, reference compound]
IC50 ([1]; Homo sapiens, HL-60, read-out: IC50 HL60): 0.0083 mg/L (≈ 0.0187 µM) | IC50 (colon cancer LoVo; Homo sapiens, LoVo): 0.22 ± 0.067 mg/L (≈ 0.495 µM) | IC50 (HL60/MX2; Homo sapiens, HL60/MX2, 72 h continuous exposure): 0.356 mg/L (≈ 0.801 µM) | RI HL60 HL60/MX2 (HL60/MX2): 42.9 | IC50 ([2]; Homo sapiens, DU-145): 0.0085 ± 0.0015 µM | IC50 (MES-SA/DX5; Homo sapiens, MES-SA/Dx5, 72 h continuous exposure): 0.66 ± 0.059 mg/L (≈ 1.48 µM) | RI MES-SA MES-SA/DX5 (MES-SA/DX5): 2.9 | IC50 ([3]; Homo sapiens, HT-29): 0.0114 ± 0.0039 µM | Effect of blocking MDR-1 pump with cyclosporine A (CSA) on cytostatic activity (HL60/VINC [4]): has positive influence on maintaining the cytostatic activity | IC50 ([5]; Homo sapiens, HL-60): 0.0021 ± 0.0002 µM | IC50 (uterus cancer MES-SA; Homo sapiens, MES-SA): 0.23 ± 0.121 mg/L (≈ 0.517 µM) | IC50 ([6]; Homo sapiens, MCF7): 0.0074 ± 0.0019 µM | IC50 ([7]; Homo sapiens, LNCaP): 0.0074 ± 0.0011 µM | IC50 (HT29/MIT; Homo sapiens, HT-29): 0.854 ± 0.158 µM | RI resistance index HT29/MIT (HT29/MIT): 74.9 | IC50 (CT-DNA): 0.048 ± 0.004 µM | Kapp relative constant of DNA-compound bonding (CT-DNA): 2.61e+08 M⁻¹ | IC50 (HL60/VINC [8]; Homo sapiens, HL60/vinc): 0.0657 ± 0.0067 µM | RI resistance index HL60/VINC (HL60/VINC [8]): 31.3 | IC50 ([9]; Homo sapiens, CCRF-CEM): 0.0025 mg/L (≈ 0.00562 µM) | IC50 (HL60/DX [10]; Homo sapiens, HL-60): 3.43 ± 0.661 µM | RI resistance index HL60/DX (HL60/DX [10]): 1633.8 | Effect of MRP protein inhibitor (BSO) on cytostatic activity (HL60/DX [11]): essentially influences the cytostatic activity | IC50 ([12]; Homo sapiens): 0.0186 ± 0.0038 µM | RI LoVo LoVo/DX (LoVo/DX): 9.5 | IC50 (LoVo/DX; LoVo/DX, 72 h continuous exposure): 2.09 ± 0.519 mg/L (≈ 4.7 µM) | IC50 (CEM/C2; Homo sapiens, CEM/C2, 72 h continuous exposure): 0.0028 mg/L (≈ 0.0063 µM) | RI CCRF-CEM CEM/C2 (CEM/C2): 1.1 | IC50 (MCF7/DX; Homo sapiens, MCF7/DX): 0.471 ± 0.16 µM | RI resistance index MCF7/DX (MCF7/DX): 63.6

— patent publication US9096536B2, “Asymmetrically substituted anthrapyridazone derivatives as cytostatics” (BS-154 S.P. ZO.O., priority 2011, dated 2015)
